Test results from ChEMBL document CHEMBL5143704, “Discovery of 2,4-diarylaminopyrimidine derivatives bearing dithiocarbamate moiety as novel ALK inhibitors” (Bioorg Med Chem, 2022).

Columns and labels:
HCT-116 = assay: cells; conditions: Homo sapiens, HCT-116, 96 h
Description: Antiproliferative activity against ALK-negative human HCT-116 cells assessed as inhibition of cell growth incubated for 96 hrs by MTT assay

KARPAS-299 = assay: cells; conditions: Homo sapiens, KARPAS-299, 96 h
Description: Antiproliferative activity against NPM-ALK positive human KARPAS-299 cells assessed as inhibition of cell growth incubated for 96 hrs by CCK-8 assay

NCI-H2228 = assay: cells; conditions: Homo sapiens, NCI-H2228, 96 h
Description: Antiproliferative activity against EML4-ALK positive human NCI-H2228 cells assessed as inhibition of cell growth incubated for 96 hrs by MTT assay

A549 = assay: cells; conditions: Homo sapiens, A549, 96 h
Description: Antiproliferative activity against ALK-negative human A549 cells assessed as inhibition of cell growth incubated for 96 hrs by MTT assay

[1] = molecular target: ALK tyrosine kinase receptor (Homo sapiens, UniProt Q9UM73); assay: Inhibition of wild type N-terminal GST tagged ALK cytoplasmic domain (1058 to 1620 end residues) (unknown origin) expressed in Sf21 cells incubated for 1 hr in presence of ATP
Sequence of ALK tyrosine kinase receptor (Q9UM73 whole entry, the tested form may be a part): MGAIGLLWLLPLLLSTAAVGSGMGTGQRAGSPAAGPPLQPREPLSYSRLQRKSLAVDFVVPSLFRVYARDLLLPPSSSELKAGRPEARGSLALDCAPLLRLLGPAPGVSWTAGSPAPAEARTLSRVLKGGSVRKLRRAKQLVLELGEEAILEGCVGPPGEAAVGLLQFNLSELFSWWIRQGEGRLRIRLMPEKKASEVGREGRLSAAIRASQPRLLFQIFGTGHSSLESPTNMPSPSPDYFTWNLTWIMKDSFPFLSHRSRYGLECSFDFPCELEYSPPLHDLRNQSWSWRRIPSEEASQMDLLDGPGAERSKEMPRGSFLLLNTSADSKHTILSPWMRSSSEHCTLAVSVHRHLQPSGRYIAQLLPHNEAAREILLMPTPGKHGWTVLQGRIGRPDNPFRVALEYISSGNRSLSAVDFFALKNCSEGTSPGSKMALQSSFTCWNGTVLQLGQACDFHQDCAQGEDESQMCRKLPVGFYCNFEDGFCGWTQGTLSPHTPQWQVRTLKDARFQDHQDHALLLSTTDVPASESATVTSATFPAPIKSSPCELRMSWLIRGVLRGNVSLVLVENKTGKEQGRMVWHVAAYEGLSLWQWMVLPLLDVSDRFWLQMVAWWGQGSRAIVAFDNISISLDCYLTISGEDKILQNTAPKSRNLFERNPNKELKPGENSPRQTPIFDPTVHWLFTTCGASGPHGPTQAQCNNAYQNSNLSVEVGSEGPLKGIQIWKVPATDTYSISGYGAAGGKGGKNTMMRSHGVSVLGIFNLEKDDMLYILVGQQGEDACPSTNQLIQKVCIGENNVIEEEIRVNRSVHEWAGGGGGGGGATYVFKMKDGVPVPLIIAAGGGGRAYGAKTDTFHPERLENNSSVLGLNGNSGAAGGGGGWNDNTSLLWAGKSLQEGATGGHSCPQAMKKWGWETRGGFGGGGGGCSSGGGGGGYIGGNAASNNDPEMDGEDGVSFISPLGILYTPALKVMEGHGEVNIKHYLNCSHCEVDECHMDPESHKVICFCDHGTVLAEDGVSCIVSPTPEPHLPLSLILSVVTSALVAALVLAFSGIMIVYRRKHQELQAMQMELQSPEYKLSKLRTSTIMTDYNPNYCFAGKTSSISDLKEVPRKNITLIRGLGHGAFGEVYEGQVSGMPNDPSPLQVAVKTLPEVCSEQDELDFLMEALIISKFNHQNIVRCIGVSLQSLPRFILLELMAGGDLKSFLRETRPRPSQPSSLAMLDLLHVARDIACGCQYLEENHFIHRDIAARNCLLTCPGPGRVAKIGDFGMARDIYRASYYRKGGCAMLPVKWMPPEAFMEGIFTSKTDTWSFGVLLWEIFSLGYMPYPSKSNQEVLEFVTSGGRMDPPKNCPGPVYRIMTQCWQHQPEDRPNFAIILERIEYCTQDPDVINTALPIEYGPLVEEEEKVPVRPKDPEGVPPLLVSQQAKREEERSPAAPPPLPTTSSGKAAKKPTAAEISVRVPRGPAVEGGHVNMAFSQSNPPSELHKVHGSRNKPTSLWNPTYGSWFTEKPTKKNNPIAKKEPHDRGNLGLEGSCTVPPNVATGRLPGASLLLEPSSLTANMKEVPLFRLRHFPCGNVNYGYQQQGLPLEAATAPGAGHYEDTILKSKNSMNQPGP

Cc1cc(Nc2ncc(Cl)c(Nc3ccccc3S(=O)(=O)C(C)C)n2)c(OC(C)C)cc1C1CCN(C(=S)SCCN2CCCC2)CC1
IC50 (HCT-116): 4670 nM
IC50 (KARPAS-299): 220 nM
IC50 (NCI-H2228): 280 nM
IC50 (A549): 1720 nM

Cc1cc(Nc2ncc(Cl)c(Nc3ccccc3S(=O)(=O)C(C)C)n2)c(OC(C)C)cc1C1CCN(C(=S)SCC(=O)N2CCCCC2)CC1
IC50 (HCT-116): 3330 nM
IC50 (KARPAS-299): 150 nM
IC50 (NCI-H2228): 1320 nM
IC50 (A549): > 10000 nM

Cc1cc(Nc2ncc(Cl)c(Nc3ccccc3S(=O)(=O)C(C)C)n2)c(OC(C)C)cc1C1CCN(C(=O)SCC(=S)N2CCN(C3CCCC3)CC2)CC1
IC50 (HCT-116): 5810 nM
IC50 (KARPAS-299): 1700 nM
IC50 (NCI-H2228): 350 nM
IC50 (A549): > 10000 nM

Cc1cc(Nc2ncc(Cl)c(Nc3ccccc3S(=O)(=O)C(C)C)n2)c(OC(C)C)cc1C1CCN(C(=O)SCC(=S)N2CCCCC2)CC1
IC50 (HCT-116): 3360 nM
IC50 (KARPAS-299): 150 nM
IC50 (NCI-H2228): 380 nM
IC50 (A549): > 10000 nM

Cc1cc(Nc2ncc(Cl)c(Nc3ccccc3S(=O)(=O)C(C)C)n2)c(OC(C)C)cc1C1CCN(C(=S)SCCN2CCCCC2)CC1
IC50 (HCT-116): 2450 nM
IC50 (KARPAS-299): 90 nM
IC50 (NCI-H2228): 280 nM
IC50 [1]: > 100 nM
IC50 (A549): > 10000 nM

Cc1cc(Nc2ncc(Cl)c(Nc3ccccc3S(=O)(=O)C(C)C)n2)c(OC(C)C)cc1C1CCN(C(=S)SCCN(C)C)CC1
IC50 (HCT-116): 1070 nM
IC50 (KARPAS-299): 110 nM
IC50 (NCI-H2228): 180 nM
IC50 (A549): > 10000 nM

Cc1cc(Nc2ncc(Cl)c(Nc3ccccc3S(=O)(=O)C(C)C)n2)c(OC(C)C)cc1C1CCN(C(=O)SCC(=S)N2CCN(CCO)CC2)CC1
IC50 (HCT-116): 1530 nM
IC50 (KARPAS-299): 80 nM
IC50 (NCI-H2228): 120 nM
IC50 (A549): > 10000 nM

Cc1cc(Nc2ncc(Cl)c(Nc3ccccc3S(=O)(=O)C(C)C)n2)c(OC(C)C)cc1C1CCN(C(=S)SCC(=O)N2CCOCC2)CC1
IC50 (HCT-116): > 10000 nM
IC50 (KARPAS-299): 100 nM
IC50 (NCI-H2228): 1600 nM
IC50 (A549): > 10000 nM

CCN(CC)C(=S)CSC(=O)N1CCC(c2cc(OC(C)C)c(Nc3ncc(Cl)c(Nc4ccccc4S(=O)(=O)C(C)C)n3)cc2C)CC1
IC50 (HCT-116): 2510 nM
IC50 (KARPAS-299): 440 nM
IC50 (NCI-H2228): 1230 nM
IC50 (A549): > 10000 nM

Cc1cc(Nc2ncc(Cl)c(Nc3ccccc3S(=O)(=O)C(C)C)n2)c(OC(C)C)cc1C1CCN(C(=O)SCC(=S)N2CCN(C)CC2)CC1
IC50 (HCT-116): 2700 nM
IC50 (KARPAS-299): 140 nM
IC50 (NCI-H2228): 320 nM
IC50 [1]: > 100 nM
IC50 (A549): > 10000 nM

Cc1cc(Nc2ncc(Cl)c(Nc3ccccc3S(=O)(=O)C(C)C)n2)c(OC(C)C)cc1C1CCN(C(=O)SCC(=S)N2CCCC2)CC1
IC50 (HCT-116): 3170 nM
IC50 (KARPAS-299): 860 nM
IC50 (NCI-H2228): 1210 nM
IC50 (A549): > 10000 nM

Cc1cc(Nc2ncc(Cl)c(Nc3ccccc3S(=O)(=O)C(C)C)n2)c(OC(C)C)cc1C1CCN(C(=O)SCC(=S)N2CCNC(C)C2)CC1 (stereo not given)
IC50 (HCT-116): 2840 nM
IC50 (KARPAS-299): 210 nM
IC50 (NCI-H2228): 160 nM
IC50 [1]: > 100 nM
IC50 (A549): > 10000 nM

Cc1cc(Nc2ncc(Cl)c(Nc3ccccc3S(=O)(=O)C(C)C)n2)c(OC(C)C)cc1C1CCN(C(=S)SCC(N)=O)CC1
IC50 (HCT-116): 8150 nM
IC50 (KARPAS-299): 180 nM
IC50 (NCI-H2228): 270 nM
IC50 (A549): > 10000 nM

Cc1cc(Nc2ncc(Cl)c(Nc3ccccc3S(=O)(=O)C(C)C)n2)c(OC(C)C)cc1C1CCN(C(=O)SCC(=S)N2CCC[C@H]2CO)CC1
IC50 (HCT-116): 4890 nM
IC50 (KARPAS-299): 110 nM
IC50 (NCI-H2228): 220 nM
IC50 (A549): > 10000 nM

Cc1cc(Nc2ncc(Cl)c(Nc3ccccc3S(=O)(=O)C(C)C)n2)c(OC(C)C)cc1C1CCN(C(=O)SCC(=S)N2CCOCC2)CC1
IC50 (HCT-116): 4950 nM
IC50 (KARPAS-299): 120 nM
IC50 (NCI-H2228): 650 nM
IC50 (A549): > 10000 nM

Cc1cc(Nc2ncc(Cl)c(Nc3ccccc3S(=O)(=O)C(C)C)n2)c(OC(C)C)cc1C1CCN(C(=O)SCC(=S)N2CC(C)N(C)C(C)C2)CC1 (stereo not given)
IC50 (HCT-116): 3960 nM
IC50 (KARPAS-299): 100 nM
IC50 (NCI-H2228): 210 nM
IC50 [1]: > 100 nM
IC50 (A549): > 10000 nM

Cc1cc(Nc2ncc(Cl)c(Nc3ccccc3S(=O)(=O)C(C)C)n2)c(OC(C)C)cc1C1CCN(C(=S)SCC(=O)NC2CCCCC2)CC1
IC50 (HCT-116): 7830 nM
IC50 (KARPAS-299): 590 nM
IC50 (NCI-H2228): 2660 nM
IC50 (A549): > 10000 nM

CCN1CCN(C(=S)CSC(=O)N2CCC(c3cc(OC(C)C)c(Nc4ncc(Cl)c(Nc5ccccc5S(=O)(=O)C(C)C)n4)cc3C)CC2)CC1
IC50 (HCT-116): 2060 nM
IC50 (KARPAS-299): 320 nM
IC50 (NCI-H2228): 130 nM
IC50 (A549): > 10000 nM

Cc1cc(Nc2ncc(Cl)c(Nc3ccccc3S(=O)(=O)C(C)C)n2)c(OC(C)C)cc1C1CCN(C(=O)SCC(=S)N2CCSCC2)CC1
IC50 (HCT-116): 5280 nM
IC50 (KARPAS-299): 230 nM
IC50 (NCI-H2228): 350 nM
IC50 (A549): > 10000 nM

Cc1cc(Nc2ncc(Cl)c(Nc3ccccc3S(=O)(=O)C(C)C)n2)c(OC(C)C)cc1C1CCN(C(=S)SCCN2CCN(C)CC2)CC1
IC50 (HCT-116): 2190 nM
IC50 (KARPAS-299): 170 nM
IC50 (NCI-H2228): 270 nM
IC50 [1]: > 100 nM
IC50 (A549): > 10000 nM

CCN(CC)C(=O)CSC(=S)N1CCC(c2cc(OC(C)C)c(Nc3ncc(Cl)c(Nc4ccccc4S(=O)(=O)C(C)C)n3)cc2C)CC1
IC50 (HCT-116): 4740 nM
IC50 (KARPAS-299): 270 nM
IC50 (NCI-H2228): 860 nM
IC50 (A549): > 10000 nM

Cc1cc(Nc2ncc(Cl)c(Nc3ccccc3S(=O)(=O)C(C)C)n2)c(OC(C)C)cc1C1CCN(C(=S)SCC(=O)N2CCSCC2)CC1
IC50 (HCT-116): 3860 nM
IC50 (KARPAS-299): 80 nM
IC50 (NCI-H2228): 630 nM
IC50 (A549): > 10000 nM

Cc1cc(Nc2ncc(Cl)c(Nc3ccccc3S(=O)(=O)C(C)C)n2)c(OC(C)C)cc1C1CCN(C(=S)SCC(=O)NC(C)C)CC1
IC50 (HCT-116): > 10000 nM
IC50 (KARPAS-299): 140 nM
IC50 (NCI-H2228): 360 nM
IC50 (A549): > 10000 nM

Cc1cc(Nc2ncc(Cl)c(Nc3ccccc3S(=O)(=O)C(C)C)n2)c(OC(C)C)cc1C1CCN(C(=S)SCC(=O)N(C)C)CC1
IC50 (HCT-116): 5930 nM
IC50 (KARPAS-299): 250 nM
IC50 (NCI-H2228): 1540 nM
IC50 (A549): > 10000 nM

CCN(CC)CCCSC(=S)N1CCC(c2cc(OC(C)C)c(Nc3ncc(Cl)c(Nc4ccccc4S(=O)(=O)C(C)C)n3)cc2C)CC1
IC50 (HCT-116): > 10000 nM
IC50 (KARPAS-299): 500 nM
IC50 (NCI-H2228): 490 nM
IC50 [1]: > 100 nM
IC50 (A549): > 10000 nM

Cc1cc(Nc2ncc(Cl)c(Nc3ccccc3S(=O)(=O)C(C)C)n2)c(OC(C)C)cc1C1CCN(C(=S)SCC(=O)N2CCC(C)CC2)CC1
IC50 (HCT-116): 5460 nM
IC50 (KARPAS-299): 310 nM
IC50 (NCI-H2228): 2030 nM
IC50 (A549): > 10000 nM

Cc1cc(Nc2ncc(Cl)c(Nc3ccccc3S(=O)(=O)C(C)C)n2)c(OC(C)C)cc1C1CCN(C(=O)SCC(=S)N2CCN(S(C)(=O)=O)CC2)CC1
IC50 (HCT-116): 3540 nM
IC50 (KARPAS-299): 340 nM
IC50 (NCI-H2228): 160 nM
IC50 (A549): > 10000 nM

CCN(CC)CCSC(=S)N1CCC(c2cc(OC(C)C)c(Nc3ncc(Cl)c(Nc4ccccc4S(=O)(=O)C(C)C)n3)cc2C)CC1
IC50 (HCT-116): 980 nM
IC50 (KARPAS-299): 260 nM
IC50 (NCI-H2228): 230 nM
IC50 (A549): > 10000 nM

Cc1cc(Nc2ncc(Cl)c(Nc3ccccc3S(=O)(=O)C(C)C)n2)c(OC(C)C)cc1C1CCN(C(=S)SCCN2CCOCC2)CC1
IC50 (HCT-116): 3780 nM
IC50 (KARPAS-299): 320 nM
IC50 (NCI-H2228): 170 nM
IC50 (A549): > 10000 nM

Cc1cc(Nc2ncc(Cl)c(Nc3ccccc3S(=O)(=O)C(C)C)n2)c(OC(C)C)cc1C1CCN(C(=S)SCC(=O)NC2CCCC2)CC1
IC50 (HCT-116): 3520 nM
IC50 (KARPAS-299): 130 nM
IC50 (NCI-H2228): 410 nM
IC50 (A549): > 10000 nM

Cc1cc(Nc2ncc(Cl)c(Nc3ccccc3S(=O)(=O)C(C)C)n2)c(OC(C)C)cc1C1CCN(C(=S)SCC(=O)NC2CCC2)CC1
IC50 (HCT-116): 7030 nM
IC50 (KARPAS-299): 140 nM
IC50 (NCI-H2228): 450 nM
IC50 (A549): > 10000 nM

Cc1cc(Nc2ncc(Cl)c(Nc3ccccc3S(=O)(=O)C(C)C)n2)c(OC(C)C)cc1C1CCN(C(=O)SCC(=S)N(C)C)CC1
IC50 (HCT-116): 2730 nM
IC50 (KARPAS-299): 230 nM
IC50 (NCI-H2228): 850 nM
IC50 (A549): > 10000 nM

Cc1cc(Nc2ncc(Cl)c(Nc3ccccc3S(=O)(=O)C(C)C)n2)c(OC(C)C)cc1C1CCN(C(=O)SCC(=S)N(C)CCN(C)C)CC1
IC50 (HCT-116): 6550 nM
IC50 (KARPAS-299): 480 nM
IC50 (NCI-H2228): 370 nM
IC50 (A549): > 10000 nM

Cc1cc(Nc2ncc(Cl)c(Nc3ccccc3S(=O)(=O)C(C)C)n2)c(OC(C)C)cc1C1CCNCC1 [CERITINIB]
IC50 (HCT-116): 1070 nM
IC50 (NCI-H2228): 30 nM
